Assays:
CDK2/Cyclin A complex = CDK2/Cyclin A complex (Homo sapiens, UniProt P24941); experiment: CDK2/Cyclin A assay; format: biochemical; design: CDK2^c: concentration or dose not given beside the values; conditions: Table A combinatorial examples; footnote c not given
Source text: CDK2/Cyclin A Construct for Assay: CDK2 was purified using published methodology (Rosenblatt et al., J. Mol. Biol., 230, 1317-1319 (1993)) from insect cells that had been infected with a baculovirus expression vector. Cyclin A was purified from E. coli cells expressing full-length recombinant cyclin A, and a truncated cyclin A construct was generated by limited proteolysis and purified as described previously (Jeffrey et al., Nature, 376, 313-320 (Jul. 27, 1995)).
CDK2/Cyclin A and CDK4/Cyclin D Assays
Cyclin-dependent kinase activity was measured by quantifying the enzyme-catalyzed, time-dependent incorporation of radioactive phosphate from [^32P]ATP into a recombinant fragment of the retinoblastoma protein. Unless noted otherwise, assays were performed in 96-well plates in a total volume of 50 μL, in the presence of 10 mM HEPES (N-[2-hydroxyethyl]piperazine-N′-[2-ethanesulfonic acid]) (pH 7.4), 10 mM MgCl2, 25 μM adenosine triphosphate (ATP), 1 mg/mL ovalbumin, 5 μg/mL leupeptin, 1 mM dithiothreitol, 10 mM β-glycerophosphate, 0.1 mM sodium vanadate, 1 mM sodium fluoride, 2.5 mM ethylene glycol-bis(β-aminoethyl ether)-N,N,N′N′-tetraacetic acid (EGTA), 2% (v/v) dimethylsulfoxide, and 0.03-0.2 μCi [^32P]ATP. The substrate (0.3-0.5 μg) was purified recombinant retinoblastoma protein fragment (Rb) (residues 386-928 of the native retinoblastoma protein; 62.3 kDa, containing the majority of the phosphorylation sites found in the native 106-kDa protein, as well as a tag of six histidine residues for ease of purification). Reactions were initiated with CDK2 (150 nM CDK2/Cyclin A complex) or CDK4 (50 nM CDK4/Cyclin D3 complex), incubated at 30° C., and terminated after 20 minutes by the addition of ethylenediaminetetraacetic acid EDTA) to 250 mM. The phosphorylated substrate was then captured on a nitrocellulose membrane using a 96-well filtration manifold, and unincorporated radioactivity was removed by repeated washing with 0.85% phosphoric acid. Radioactivity was quantified by exposing the dried nitrocellulose membranes to a phosphorimager. Apparent Ki values were measured by assaying enzyme activity in the presence of different compound concentrations and subtracting the background radioactivity measured in the absence of enzyme. The kinetic parameters (kcat, Km for ATP) were measured for each enzyme under the usual assay conditions by determining the dependence of initial rates on ATP concentration. The data were fit to an equation for competitive inhibition using Kaleidagraph (Synergy Software), or were fit to an equation for competitive tight-binding inhibition using the software KineTic (BioKin, Ltd.). Measured Ki values for known inhibitors against CDK4 and CDK2 agreed with published IC50 values. The specific activity of CDK4 was the same whether complexed to full-length cyclin D3 or the truncated Cyclin D3 construct; both complexes also yielded very similar Ki values for selected inhibitors.

FL-CHK1 = molecular target: T1, FL-CHK1 (Homo sapiens, UniProt O14757); experiment: CHK1 assay; format: biochemical; design: CHK1^b: unit not given here; conditions: Table A combinatorial examples; footnote b not given
T1 construct: C-terminally His-tagged full-length human CHK1 (FL-CHK1); 6xHis (C); made in house; host or cells: baculovirus/insect cells
T1 sequence (O14757 1-476): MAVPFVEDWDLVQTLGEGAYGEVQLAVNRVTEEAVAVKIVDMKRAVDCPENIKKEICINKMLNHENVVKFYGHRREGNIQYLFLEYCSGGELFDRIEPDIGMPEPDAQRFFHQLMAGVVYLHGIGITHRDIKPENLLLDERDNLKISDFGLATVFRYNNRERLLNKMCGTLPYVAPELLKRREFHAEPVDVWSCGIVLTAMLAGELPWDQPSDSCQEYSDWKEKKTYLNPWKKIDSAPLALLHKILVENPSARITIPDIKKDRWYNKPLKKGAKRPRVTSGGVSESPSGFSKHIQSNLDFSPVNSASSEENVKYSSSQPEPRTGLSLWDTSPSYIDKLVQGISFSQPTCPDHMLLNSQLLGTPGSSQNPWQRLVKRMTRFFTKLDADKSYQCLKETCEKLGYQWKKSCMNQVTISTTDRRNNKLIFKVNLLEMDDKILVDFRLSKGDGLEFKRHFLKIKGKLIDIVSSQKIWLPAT
Source text: CHK-1 Construct for Assay: C-terminally His-tagged full-length human CHK1 (FL-CHK1) was expressed using the baculovirus/insect cell system. It contains 6 histidine residues (6×His-tag) at the C-terminus of the 476 amino acid human CHK1. The protein was purified by conventional chromatographic techniques.
The production of ADP from ATP that accompanies phosphoryl transfer to the synthetic substrate peptide Syntide-2 ([…]) was coupled to oxidation of NADH using phosphoenolpyruvate (PEP) through the actions of pyruvate kinase (PK) and lactic dehydrogenase (LDH). The oxidation of NADH was monitored by following the decrease of absorbance at 340 nm (ε340=6.22 cm^−1 mM^−1) using a HP8452 spectrophotometer. Typical reaction solutions contained: […]; 0.15 mM NADH; 28 units of LDH/ml; 16 units of PK/ml; 3 mM DTT; 0.125 mM Syntide-2; 0.15 mM ATP; 25 mM MgCl2 in 50 mM TRIS, pH 7.5; and 400 mM NaCl. Assays were initiated with 10 nM of FL-CHK1. Ki values were determined by measuring initial enzyme activity in the presence of varying concentrations of test compounds. The data were analyzed using Enzyme Kinetic and Kaleidagraph software.

CDK2^c (CDK2/Cyclin A complex)	CHK1^b (FL-CHK1)	SMILES
1.9	36.6	COc1cc(Nc2nc(N)c(-c3nc(-c4ccccc4[N+](=O)O)cs3)s2)cc(OC)c1OC
−13	15.3	COc1ccc(-c2csc(-c3sc(Nc4cc(OC)c(OC)c(OC)c4)nc3N)n2)cc1 [drawing 336]
5.3	25.3	COc1cc(Nc2nc(N)c(-c3nc(-c4cc(C(C)(C)C)c(O)c(C(C)(C)C)c4)cs3)s2)cc(OC)c1OC
20.4	18.7	COc1cc(Nc2nc(N)c(-c3nc(-c4ccc(-c5ccccc5)cc4)cs3)s2)cc(OC)c1OC
11.6	9.2	COc1cc(Nc2nc(N)c(-c3nc(-c4ccc5ccccc5c4)cs3)s2)cc2c1OCCO2
−14.4	15.2	COc1cc(Nc2nc(N)c(-c3nc(-c4ccc([N+](=O)[O-])cc4)cs3)s2)cc(OC)c1OC
28.4	27.9	COc1cc(Nc2nc(N)c(-c3nc(-c4cc(C)c(O)c(C)c4)cs3)s2)cc(OC)c1OC
−7.5	30.9	COc1cc(Nc2nc(N)c(-c3nc(-c4cc(F)c(C)c(Cl)c4)cs3)s2)cc(OC)c1OC
9.1	13.2	COc1cc(Nc2nc(N)c(-c3nc(-c4csc5ccccc45)cs3)s2)cc(OC)c1OC
7.3	46.3	COc1cc(Nc2nc(N)c(-c3nc(-c4cc(C)sc4C)cs3)s2)cc(OC)c1OC
26.7	41.9	COc1cc(Nc2nc(N)c(-c3nc(-c4ccc(CC(=O)O)s4)cs3)s2)cc(OC)c1OC
−3.5	20	COc1ccccc1-c1csc(-c2sc(Nc3cc(OC)c(OC)c(OC)c3)nc2N)n1
−6	26.2	COc1cc(Nc2nc(N)c(-c3nc(-c4c(Cl)cc(C(F)(F)F)cc4Cl)cs3)s2)cc(OC)c1OC
23.1	4.7	COc1cc(Nc2nc(N)c(-c3nc(-c4sc5ccccc5c4C)cs3)s2)cc2c1OCCO2
−0.4	21.2	COc1cccc(-c2csc(-c3sc(Nc4cc(OC)c(OC)c(OC)c4)nc3N)n2)c1
15.6	13.5	COc1cc(Nc2nc(N)c(-c3nc(-c4cccc(Br)c4)cs3)s2)cc(OC)c1OC
13.9	8.5	COc1cc(Nc2nc(N)c(-c3nc(-c4ccc(C(F)(F)F)cc4)cs3)s2)cc(OC)c1OC
13.8	10.4	CCc1cc2c(cc1-c1csc(-c3sc(Nc4cc(OC)c5c(c4)OCCO5)nc3N)n1)C(C)(C)CCC2(C)C
12.4	23	COc1cc(Nc2nc(N)c(-c3nc(-c4ccc(-c5ccc(Cl)cc5Cl)o4)cs3)s2)cc(OC)c1OC
−2.7	21.6	COc1ccc2nc(-c3ccccc3)cc(-c3csc(-c4sc(Nc5cc(OC)c(OC)c(OC)c5)nc4N)n3)c2c1
1.6	−7.4	COc1cc(Nc2nc(N)c(-c3nc(-c4ccccc4OC(C)=O)cs3)s2)cc(OC)c1OC

CDK2^c (CDK2/Cyclin A complex)	CHK1^b (FL-CHK1)	SMILES
4.4	41.4	CCOC(=O)c1ccccc1-c1csc(-c2sc(Nc3cc(OC)c(OC)c(OC)c3)nc2N)n1
23.2	2.7	CCOC(=O)c1cc(-c2csc(-c3sc(Nc4cc(OC)c(OC)c(OC)c4)nc3N)n2)on1
3.8	31.3	COc1cc(Nc2nc(N)c(-c3nc(-c4ccc(Cl)cc4Cl)cs3)s2)cc(OC)c1OC
19.8	48.3	COc1cc(Nc2nc(N)c(-c3nc(-c4c(C)c(C)c(C)c(C)c4C)cs3)s2)cc(OC)c1OC
11.2	2.7	COc1cc(Nc2nc(N)c(-c3nc(-c4cc(-c5ccccc5)no4)cs3)s2)cc(OC)c1OC
14.6	22.3	COc1cc(Nc2nc(N)c(-c3nc(-c4ccc(OC(=O)c5ccccc5)cc4)cs3)s2)cc(OC)c1OC
−10.3	47.7	COc1cc(Nc2nc(N)c(-c3nc(-c4ccc(O)c(O)c4)cs3)s2)cc(OC)c1OC [drawing 325]
12	38.1	COc1cc(Nc2nc(N)c(-c3nc(-c4sc5ccc(Cl)cc5c4C)cs3)s2)cc2c1OCCO2 [drawing 363]
4.2	22.4	COc1cc(Nc2nc(N)c(-c3nc(-c4ccc5c(c4)C(C)(C)CCC5(C)C)cs3)s2)cc2c1OCCO2
6.6	8.8	COc1cc(Nc2nc(N)c(-c3nc(-c4cccc([N+](=O)[O-])c4)cs3)s2)cc(OC)c1OC
19	34.1	COc1cc(Nc2nc(N)c(-c3nc(-c4ccc5oc6ccccc6c5c4)cs3)s2)cc2c1OCCO2
4.6	0.5	COc1cc(Nc2nc(N)c(-c3nc(-c4ccccc4OC(=O)c4ccccc4)cs3)s2)cc(OC)c1OC
−1.2	12	COc1cc(Nc2nc(N)c(-c3nc(-c4ccc(C)cc4C)cs3)s2)cc(OC)c1OC
−0.2	21.1	COc1cc(Nc2nc(N)c(-c3nc(-c4ccccc4)cs3)s2)cc(OC)c1OC [drawing 358]
−5	16.5	COc1cc(Nc2nc(N)c(-c3nc(-c4ccc(F)c(F)c4)cs3)s2)cc(OC)c1OC
7.3	48.7	COc1cc(Nc2nc(N)c(-c3nc(-c4sc5ccc(Cl)cc5c4C)cs3)s2)cc2c1OCCO2 [drawing 361]
6.3	1.3	CCN(CC)c1ccc(-c2csc(-c3sc(Nc4cc(OC)c(OC)c(OC)c4)nc3N)n2)cc1
−12.3	23.9	COc1cc(Nc2nc(N)c(-c3nc(-c4cccc(OC(=O)c5ccccc5)c4)cs3)s2)cc(OC)c1OC
1.7	29.4	COc1ccc(-c2csc(-c3sc(Nc4cc(OC)c(OC)c(OC)c4)nc3N)n2)cc1 [drawing 362]
−0.2	32	COc1cc(Nc2nc(N)c(-c3nc(-c4cc(Br)c(Cl)s4)cs3)s2)cc(OC)c1OC
3	48.3	COc1cc(Nc2nc(N)c(-c3nc(-c4ccc(O)cc4)cs3)s2)cc(OC)c1OC [drawing 352]

SMILES	CDK2^c (CDK2/Cyclin A complex)	CHK1^b (FL-CHK1)
COc1cc(Nc2nc(N)c(-c3nc(-c4ccc(Cl)c(Cl)c4)cs3)s2)cc(OC)c1OC	7.3	12.1

— patent US6620828B2, “Thiazole compounds and pharmaceutical compositions for inhibiting protein kinases and methods for their use” (Agouron Pharmaceuticals, Inc., priority 1999, dated 2003)
